Measurements: patent US20050228180A1, “Alpha, omega-dicarboximide derivatives as useful uro-selective a1a adrenoceptor blockers” (priority 2002, published 2005)

Legend:
[1] = target: T1, α1D adrenoceptor (aorta) (Rattus norvegicus, UniProt P23944); assay: In vitro functional assay, isolated aorta, norepinephrine contraction; type: cell-based; settings: read-out: α Adrenoceptor Subtype (pKB) α1D (converted)
T1 construct: Isolated tissues were mounted in organ bath containing Krebs Henseleit buffer; from tissue; host or cells: isolated rat aorta
T1 sequence (P23944 1-561): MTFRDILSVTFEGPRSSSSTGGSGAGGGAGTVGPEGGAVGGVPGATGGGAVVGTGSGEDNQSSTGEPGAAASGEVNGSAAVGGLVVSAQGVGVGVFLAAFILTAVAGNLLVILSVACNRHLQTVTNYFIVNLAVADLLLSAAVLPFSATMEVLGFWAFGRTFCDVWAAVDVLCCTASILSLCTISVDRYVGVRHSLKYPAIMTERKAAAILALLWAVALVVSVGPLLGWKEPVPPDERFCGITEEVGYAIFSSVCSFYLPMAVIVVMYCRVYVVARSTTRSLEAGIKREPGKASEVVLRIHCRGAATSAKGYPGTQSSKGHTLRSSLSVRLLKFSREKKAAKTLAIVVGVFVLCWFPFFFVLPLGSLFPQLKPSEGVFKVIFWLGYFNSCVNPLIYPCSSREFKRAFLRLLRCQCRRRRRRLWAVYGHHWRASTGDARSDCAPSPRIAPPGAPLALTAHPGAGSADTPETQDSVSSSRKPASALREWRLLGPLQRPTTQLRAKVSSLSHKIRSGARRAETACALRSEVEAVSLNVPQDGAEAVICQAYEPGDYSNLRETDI
Summary of the method: (§1)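 Rat aorta, spleen and prostate strips from urethane-anaesthetised male Wistar rats in Krebs-Henseleit at 37 °C (95% O2/5% CO2), 2 g or 1 g resting tension, 2 h equilibration. Norepinephrine (aorta) or phenylephrine (spleen, prostate) contraction curves run without and with compound at […]; antagonist affinity given as pKB.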

[2] = target: T2, α1B adrenoceptor (Rattus norvegicus, UniProt P15823); assay: Radioligand binding, [3H] prazosin displacement, rat liver membranes; settings: read-out: Affinity (Ki) α1B (Rat Liver)
T2 construct: from tissue; host or cells: rat liver membranes
T2 sequence (P15823 1-515): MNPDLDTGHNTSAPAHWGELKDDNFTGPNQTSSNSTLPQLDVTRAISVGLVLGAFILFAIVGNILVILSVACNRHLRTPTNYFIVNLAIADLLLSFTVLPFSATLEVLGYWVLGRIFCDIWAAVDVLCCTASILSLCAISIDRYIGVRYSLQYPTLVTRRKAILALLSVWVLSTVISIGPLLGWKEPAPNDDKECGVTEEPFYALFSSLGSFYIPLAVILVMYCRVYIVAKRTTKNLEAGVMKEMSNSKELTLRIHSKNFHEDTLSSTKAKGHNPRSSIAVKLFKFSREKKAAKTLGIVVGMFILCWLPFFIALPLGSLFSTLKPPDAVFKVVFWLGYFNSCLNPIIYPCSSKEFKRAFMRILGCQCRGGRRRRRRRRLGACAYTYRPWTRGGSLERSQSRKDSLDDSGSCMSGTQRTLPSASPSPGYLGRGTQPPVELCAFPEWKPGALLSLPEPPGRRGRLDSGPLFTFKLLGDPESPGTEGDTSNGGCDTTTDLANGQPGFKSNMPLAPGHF
Summary of the method: (§2)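 Rat membranes (submaxillary for α1A, liver for α1B; 150-250 μg protein) incubated with [3H]prazosin and compound in Tris 50 mM/EDTA 5 mM pH 7.4, 1 h at 24-25° C. Nonspecific binding with 300 nM prazosin; filtration, counting; Ki via Cheng–Prusoff.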

[3] = target: T3, α1A adrenoceptor (prostate) (Rattus norvegicus, UniProt P43140); assay: In vitro functional assay, isolated prostate, phenylepinephrine contraction; type: cell-based; settings: for Selectivity α1B/α1A / Selectivity α1D/α1A: functional, from pKB; for Kb: rat prostate, phenylepinephrine, read-out: α Adrenoceptor Subtype (pKB) α1A (converted)
T3 construct: from tissue; host or cells: isolated prostate tissue
T3 sequence (P43140 1-466): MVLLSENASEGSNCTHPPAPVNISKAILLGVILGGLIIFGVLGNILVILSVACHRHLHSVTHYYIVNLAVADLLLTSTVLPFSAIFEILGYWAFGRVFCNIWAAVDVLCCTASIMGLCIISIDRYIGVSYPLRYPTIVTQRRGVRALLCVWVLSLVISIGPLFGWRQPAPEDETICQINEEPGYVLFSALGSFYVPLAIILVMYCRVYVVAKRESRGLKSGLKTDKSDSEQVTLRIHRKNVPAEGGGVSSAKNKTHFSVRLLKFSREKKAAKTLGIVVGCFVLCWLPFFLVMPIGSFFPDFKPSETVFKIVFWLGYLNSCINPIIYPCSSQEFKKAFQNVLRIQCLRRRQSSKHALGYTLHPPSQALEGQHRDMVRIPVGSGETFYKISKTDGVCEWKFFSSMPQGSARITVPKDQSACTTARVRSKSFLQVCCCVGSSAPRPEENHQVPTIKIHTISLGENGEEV
Summary of the method: as §1

[4] = target: T4, α1A adrenoceptor (Rattus norvegicus, UniProt P43140); assay: Radioligand binding, [3H] prazosin displacement, rat submaxillary membranes; settings: for Ki: [3H] prazosin displacement, rat submaxillary membranes, read-out: Affinity (Ki) α1A (Rat Submaxillary); for α1B/α1A: ratio of binding affinities, rat liver / rat submaxillary
T4 construct: from tissue; host or cells: rat submaxillary gland membranes
T4 sequence (P43140 1-466): T3 sequence (P43140 1-466)
Summary of the method: as §2

[5] = target: T5, α1B adrenoceptor (spleen) (Rattus norvegicus, UniProt P15823); assay: In vitro functional assay, isolated spleen, phenylepinephrine contraction; type: cell-based; settings: read-out: α Adrenoceptor Subtype (pKB) α1B (converted)
T5 construct: Isolated tissues were mounted in organ bath containing Krebs Henseleit buffer; from tissue; host or cells: isolated rat spleen
T5 sequence (P15823 1-515): T2 sequence (P15823 1-515)
Description: In order to study selectivity of action of these compounds towards different a-adrenoceptor subtypes, the ability of these compounds to antagonise (α1D) prostate (α1A) and spleen (α1B) was studied. Aorta and spleen tissues were isolated from urethane anaesthetized (1.5 g/kg) male wister rats. Isolated tissues were mounted in organ bath containing Krebs Henseleit buffer of the following composition (mM): NaCl 118; KCl 4.7; CaCl2 2.5; MgSO4 7H2O 1.2; NaHCO3 25; KH2PO4 1.2; glucose 11.5. Buffer was maintained at 37° C. and aereated with a mixture of 95% O2 and 5% CO2. A resting tension of 2 g (aorta) or 1 g (spleen and prostate) was applied to tissues. Contractile response was monitored using a force displacement transducer and recorded on chart recorders. Tissues were allowed to equilibrate for 2 hours. At the end of equilibration period, concentration response curves to norepinephrine (aorta) and phenylepinephrine (spleen and prostate) were obtained in the absence and presence of tested compound (at concentration of […]). Antagonist affinity was calculated and expressed as pKB values in Table II.

[6] = target: α1-adrenoceptor; settings: background statement; cited from earlier work

melting point	Kb [1]	Ki [2]	Selectivity α1B/α1A [3]	Selectivity α1D/α1A [3]	Kb [3]	Ki [4]	α1B/α1A [4]	Kb [5]	Structure (SMILES)	α1-adrenergic blocking activity (pKi) [6]
186 to 190 °C	2.45 nM	105 nM	132	4.8	0.513 nM	0.3 nM	350	67.6 nM	CC(C)Oc1ccccc1N1CCN(CCCN2C(=O)C3CC=CC(O)C3C2=O)CC1.Cl (stereo not shown) [Compound No. 41, 2-[3-{4-(2-Isopropoxyphenyl)piperazin-1-yl}propyl]-4-hydroxy-3a,4,7,7a-tetrahydro-1H-isoindole-1,3(2H)-dione hydrochloride]	
75 to 80 °C	81.3 nM	> 1000 nM	2.9	33	2.45 nM	22 nM	>45	7.08 nM	CCOc1ccccc1N1CC[N+]([O-])(CCCN2C(=O)C3CC=CCC3C2=O)CC1 (stereo not shown) [compound 04, 2-[3-{4-(2-Ethoxyphenyl)piperazin-1-yl, 1-N-oxide}propyl]-3a,4,7,7a-tetrahydro-1H-isoindole-1,3(2H)-dione]	
									COc1cc2nc(N3CCN(C(=O)c4ccco4)CC3)nc(N)c2cc1OC [prazosin]	> 8
